In patent US12558345B2, “CHK1/2 inhibitors for use in the treatment of neuroblastomas and/or soft tissue sarcomas” (Eli Lilly and Company, priority 2015, dated 2026):
Like-named read-outs stand apart in the source and are kept apart here.

Legend:
[1] = tested on: SJCRH-30 RMS xenograft; format: in vivo; conditions: SJCRH-30, RMS
Description: Expand human RMS cancer cells SJCRH-30 (St. Jude Children's Research Hospital) in culture, harvest, and inject 5×10^6 cells in 200 μL of HBSS subcutaneously into the right rear flank of female athymic nude mice (20-22 g, Harlan Laboratories).
For all studies, measure tumor growth and body weight twice per week beginning on the seventh day after implantation. When tumor size reaches 150-300 mm^3, randomize animals and group into groups of 4-7 animals. Prepare test compound in an appropriate vehicle (e.g. vehicle can be 20% Captisol® in sterile water) and administer subcutaneously for three consecutive days followed by a four day dosing holiday and repeat for a minimum of four weeks. Tumor response is determined by tumor volume measurement performed twice per week during the course of treatment.
The vehicle used in this study is 20% Captisol® in sterile water and is administered subcutaneously for three consecutive days followed by a four day dosing holiday and repeated for a minimum of four weeks. […] The treatment period lasts 4 weeks.

[2] = tested on: HT-29 cells; assay: ECtfs (Two-Fold Sensitization) Assay; format: cell-based; conditions: gemcitabine alone
Description: An inhibitor of CHK1 can potentiate the anti-proliferative activity of gemcitabine (or other cytotoxics) through abrogation of the intra-S phase checkpoint, resulting in sustained and increased DNA damage. The capacity for continued tumor cell proliferation after DNA damage can be analyzed by determining the ability of cells to replicate their DNA. […] In this assay, cells are treated with gemcitabine, and then with the compound of Example 2. Following a recovery period, cells are assayed for the ability to incorporate radioactive thymidine into DNA during S phase. The ECtfs parameter is a measure of the concentration of a CHK1 inhibitor necessary to reduce by half the GI90 concentration of gemcitabine, measured in this assay in the absence of CHK1 inhibition. HT-29 cells (obtained from ATCC), are grown in RPMI 1640 plus (Gibco™) 10% (v/v) heat inactivated FBS. These cells are plated at 1.3×10^3 per well on Corning Costar 96-well tissue culture plates. After plating the cells, the tissue culture plates are held at room temperature for 45 minutes, before returning to 37° C. Plates are incubated for 24 hours prior to gemcitabine addition. Before gemcitabine addition, medium is removed from all wells and replaced with 150 μL per well of fresh RPMI medium. Gemcitabine stocks at 10 mM are prepared in PBS. Gemcitabine dilutions were prepared at 4× concentrations in RPMI medium and added to wells at 50 μL per well. The highest final concentration of gemcitabine used is 80 μM and dilutions proceed by four-fold steps. Two hours later, gemcitabine-containing medium is removed from the wells and replaced with 150 μL per well of fresh RPMI medium. […] The volume of addition is 50 μL. Compound dilutions proceed by two-fold steps, starting at 5000 nM. […] Twenty μL of this solution is added to each well, yielding 1 µCi/well of ^3H-thymidine. Cells are labeled for twenty-two hours. The medium containing ^3H-thymidine is thoroughly removed from the wells. The plates are then frozen at −20° C., for several hours. To harvest the DNA containing incorporated ^3H-thymidine, plates are thawed for several minutes, and then 120 μL per well of 0.1 N NaOH is added to each well. Each plate is then incubated at 37° C., with slow mixing on a rotator, for 10 minutes. DNA is harvested with a Filtermate 196 Harvester (PerkinElmer) and collected on 96-well Unifilter GF/C plates (PerkinElmer #6005174). The wells of the tissue culture plate on which cells had been labeled are washed with water (5×). The Unifilter plate membranes are washed with an additional 4.5 mL per well (3×1.0 mL and finally a 1.5 mL wash). The Unifi is sealed with a Backseal adhesive sheet (PerkinElmer), and the 50 μL/well of MicroScint-20 (Perkin Elmer) is added. Each plate is then sealed with a Topseal clear adhesive sheet (PerkinElmer). Plates are counted on a Topcount scintillation counter (PerkinElmer), at 1 minute per well. ^3H-thymidine counts per minute (cpm) are exported into Prism (GraphPad) for analysis and plotting. […] For plotting the data in Prism, the gemcitabine concentrations are transformed to log values, and dose-response curves are fit by non-linear regression. Neither top nor bottom fits are constrained. The ECtfs value is 0.3 nM.

## O=P1(NCCCl)OCCCN1CCCl (centres unmarked) [ifosphamide, reference compound]
[1]; comparator day 46
  % T/C: 34%

## Nc1ccn([C@@H]2O[C@H](CO)[C@@H](O)C2(F)F)c(=O)n1 [gemcitabine, reference compound]
[2]; HT29 cells
  percentage of proliferation inhibition: 52%
[2]; Homo sapiens, HT-29, HT29 colon carcinoma cells
  EC50: 37 nM

## COc1cccc2c1C(=O)c1c(O)c3c(c(O)c1C2=O)C[C@@](O)(C(=O)CO)C[C@@H]3O[C@H]1C[C@H](N)[C@H](O)[C@H](C)O1 [Doxorubicin, reference compound]
[1]; comparator day 56
  % T/C: 16%

## CCc1c2c(nc3ccc(OC(=O)N4CCC(N5CCCCC5)CC4)cc13)-c1cc3c(c(=O)n1C2)COC(=O)[C@]3(O)CC [irinotecan, reference compound]
[1]; comparator day 46
  % T/C: 12%
